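GI50 = concentration required for 50% inhibition of growth. The concentration for full growth arrest is given as TGI.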
Tests used:
Assay in all cases: inhibition of tumour cell growth, NCI panel, 384-well format
[1] = tested on: 786-0 renal
[2] = tested on: A498 renal
[3] = tested on: A549 NSCLC
[4] = tested on: BT-549 breast
[5] = tested on: COLO 205 colon
[6] = tested on: EKVX NSCLC
[7] = tested on: HCC-2998 colon
[8] = tested on: HCT-116 colon
[9] = tested on: HL-60(TB) leukemia
[10] = tested on: HOP-62 NSCLC
[11] = tested on: HS 578T breast
[12] = tested on: HT29 colon
[13] = tested on: IGROV1 ovarian
[14] = tested on: KM12 colon
[15] = tested on: M14 melanoma
[16] = tested on: MALME-3M melanoma
[17] = tested on: MCF7 breast
[18] = tested on: MDA-MB-231 breast
[19] = tested on: MDA-MB-435 melanoma
[20] = tested on: MDA-MB-468 breast
[21] = tested on: NCI-H226 lung
[22] = tested on: NCI-H23 lung
[23] = tested on: NCI-H322M lung
[24] = tested on: NCI-H460 NSCLC

## CC(=O)N1CCC(Nc2cc(C(=O)NC[C@H](O)CN3CCc4ccccc4C3)ncn2)CC1
[1]
  GI50: > 100 µM
  TGI: > 100 µM
[2]
  GI50: > 100 µM
  TGI: > 100 µM
[3]
  GI50: > 100 µM
  TGI: > 100 µM
[4]
  GI50: > 100 µM
  TGI: > 100 µM
[5]
  GI50: > 100 µM
  TGI: > 100 µM
[6]
  GI50: > 100 µM
  TGI: > 100 µM
[7]
  GI50: > 100 µM
  TGI: > 100 µM
[8]
  GI50: > 100 µM
  TGI: > 100 µM
[9]
  GI50: > 100 µM
  TGI: > 100 µM
[10]
  GI50: > 100 µM
  TGI: > 100 µM
[11]
  GI50: > 100 µM
  TGI: > 100 µM
[12]
  GI50: > 100 µM
  TGI: > 100 µM
[13]
  GI50: > 100 µM
  TGI: > 100 µM
[14]
  GI50: > 100 µM
  TGI: > 100 µM
[15]
  GI50: > 100 µM
  TGI: > 100 µM
[16]
  GI50: > 100 µM
  TGI: > 100 µM
[17]
  GI50: > 36.8 µM
  TGI: > 100 µM
[18]
  GI50: > 100 µM
  TGI: > 100 µM
[19]
  GI50: > 100 µM
  TGI: > 100 µM
[20]
  GI50: 29.5 µM
  TGI: > 100 µM
[21]
  GI50: > 100 µM
  TGI: > 100 µM
[22]
  GI50: > 100 µM
  TGI: > 100 µM
[23]
  GI50: > 100 µM
  TGI: > 100 µM
[24]
  GI50: 1.9 µM
